Data reported in ChEMBL document CHEMBL1150403, “Synthesis of Hsp90 inhibitor dimers as potential antitumor agents” (Bioorg Med Chem, 2008).

Legend:
Type in all cases: functional, cell-based
SK-BR-3 = experiment: Cytotoxicity against human SKBR3 cells after 24 hrs; conditions: SK-BR-3, 24 h
MCF7 [1] = experiment: Cytotoxicity against human MCF7 cells after 24 hrs; conditions: MCF7, 24 h
MCF7 [2] = experiment: Induction of Her2 degradation in human MCF7 cells by Western blotting analysis

| SMILES | IC50 (SK-BR-3) | IC50 (MCF7 [1]) | Activity (MCF7 [2]) |
| --- | --- | --- | --- |
| COc1cc(Cc2nc3c(N)ncnc3n2CCCC#CCNCCCCCCCCCCCCCCCCNCC#CCCCn2c(Cc3cc(OC)c(OC)c(OC)c3)nc3c(N)ncnc32)cc(OC)c1OC | 3180 nM | 1570 nM | – |
| C[C@@H]1C[C@H]2O[C@@H]2/C=C\C=C\C(=O)Cc2c(Cl)c(O)cc(O)c2C(=O)O1 [RADICICOL] | 3.64 nM | 89.2 nM | – |
| CO[C@H]1/C=C/C=C(\C)C(=O)NC2=CC(=O)C(NCCCCCCCCCCCCNC3=C4C[C@@H](C)C[C@H](OC)[C@H](O)[C@@H](C)/C=C(\C)[C@H](OC(N)=O)[C@@H](OC)/C=C/C=C(\C)C(=O)NC(=CC3=O)C4=O)=C(C[C@@H](C)C[C@H](OC)[C@H](O)[C@@H](C)/C=C(\C)[C@@H]1OC(N)=O)C2=O | 296 nM | 628 nM | – |
| C#CCCCn1c(Cc2cc(OC)c(OC)c(OC)c2)nc2c(N)ncnc21 | 31800 nM | 45900 nM | – |
| COc1cc(Cc2nc3c(N)ncnc3n2CCCC#CCNCCCCNCC#CCCCn2c(Cc3cc(OC)c(OC)c(OC)c3)nc3c(N)ncnc32)cc(OC)c1OC | > 100000 nM | > 100000 nM | – |
| COc1cc(Cc2nc3c(N)ncnc3n2CCCC#CCO)cc(OC)c1OC | > 100000 nM | > 100000 nM | – |
| CO[C@H]1/C=C/C=C(\C)C(=O)NC2=CC(=O)C(NCCCCCCCCCCCCCCCCNC3=C4C[C@@H](C)C[C@H](OC)[C@H](O)[C@@H](C)/C=C(\C)[C@H](OC(N)=O)[C@@H](OC)/C=C/C=C(\C)C(=O)NC(=CC3=O)C4=O)=C(C[C@@H](C)C[C@H](OC)[C@H](O)[C@@H](C)/C=C(\C)[C@@H]1OC(N)=O)C2=O | 150 nM | 431 nM | – |
| COc1cc(Cc2nc3c(N)ncnc3n2CCCC#CCNCCCCCCCCCCCCNCC#CCCCn2c(Cc3cc(OC)c(OC)c(OC)c3)nc3c(N)ncnc32)cc(OC)c1OC | 5730 nM | 4680 nM | Dose-dependent effect |
| COc1cc(Cc2nc3c(N)ncnc3n2CCCC#CCNCCCCCCCCCCCCN)cc(OC)c1OC | 13100 nM | 55100 nM | – |
| COc1cc(Cc2nc3c(N)ncnc3n2CCCC#CCNCCCCCCCCCCCCCCCCCCCCNCC#CCCCn2c(Cc3cc(OC)c(OC)c(OC)c3)nc3c(N)ncnc32)cc(OC)c1OC | 1310 nM | 1460 nM | – |
| CO[C@H]1/C=C/C=C(\C)C(=O)NC2=CC(=O)C(NCCCCNC3=C4C[C@@H](C)C[C@H](OC)[C@H](O)[C@@H](C)/C=C(\C)[C@H](OC(N)=O)[C@@H](OC)/C=C/C=C(\C)C(=O)NC(=CC3=O)C4=O)=C(C[C@@H](C)C[C@H](OC)[C@H](O)[C@@H](C)/C=C(\C)[C@@H]1OC(N)=O)C2=O | 258 nM | 1110 nM | – |
| COc1cc(Cc2nc3c(N)ncnc3n2CCCC#CCNCCCCCCCCNCC#CCCCn2c(Cc3cc(OC)c(OC)c(OC)c3)nc3c(N)ncnc32)cc(OC)c1OC | 85700 nM | 30600 nM | – |
